{
  "source": "patent US20260207535A1",
  "about": "“CRIBLAGE INHIBITEURS USP8” (COMMISSARIAT A L'ENERGIE ATOMIQUE ET AUX ENERGIES …, priority 2022, published 2026)",
  "key": {"[1]": {"biological_target": "T1, Papain (Carica papaya, UniProt P00784)", "T1 construct": "purchased Sigma P4762", "T1 sequence (P00784 134-345)": "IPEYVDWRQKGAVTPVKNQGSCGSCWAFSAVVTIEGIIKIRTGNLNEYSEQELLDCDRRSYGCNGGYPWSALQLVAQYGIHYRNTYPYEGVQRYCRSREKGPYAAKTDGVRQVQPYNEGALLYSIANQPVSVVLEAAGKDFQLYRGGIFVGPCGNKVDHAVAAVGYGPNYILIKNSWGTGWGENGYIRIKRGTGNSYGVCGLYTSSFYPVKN", "assay": "Papain inhibition (casein digestion, SDS-PAGE)", "type": "biochemical", "protocol": "Papain (Sigma ref. P4762) and casein (Merck ref. VM874644) were dissolved in 40 mM TrisHCl buffers pH6.8 and pH9.5 respectively. Casein at the concentration of 0.5 μg/μl was incubated with the inhibitory compounds at efficient inhibitory concentration or with DMSO for 15 min and then digested by Papain (2.5 ng/μl) at RT over 45 min. The digestion samples were collected at time: 5, 15, 30 and 45 min. To inactivate the protease Laemmli 2× was added and each sample was heated at 95° C. for 5 min then analyzed with SDS-PAGE and stained with Coomassie Blue."}, "[2]": {"biological_target": "T2, UCH-L3 (Homo sapiens, UniProt P15374)", "T2 construct": "or the more distant UCH-L3 enzyme (Full length); purchased BostonBiochem E-325", "T2 sequence (P15374 1-230)": "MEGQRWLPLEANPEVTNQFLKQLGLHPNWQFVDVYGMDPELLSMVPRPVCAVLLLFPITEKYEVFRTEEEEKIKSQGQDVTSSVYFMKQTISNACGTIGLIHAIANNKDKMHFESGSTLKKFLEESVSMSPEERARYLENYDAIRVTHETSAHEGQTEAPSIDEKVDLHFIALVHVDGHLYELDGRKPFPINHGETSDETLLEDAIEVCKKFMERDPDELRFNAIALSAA", "assay": "UCH-L3 inhibition assay (Ub-Rhodamine)", "type": "biochemical", "details": "UCH-L3 3 nM", "protocol": "UCH-L3 (BostonBiochem ref. E-325) was used at a concentration of 3 nM in the presence of the Ub-Rhodamine. Enzymatic inhibition was monitored as for USP8 or USP2 CD."}, "[3]": {"biological_target": "T3, catalytic domain of USP2 (USP2CD) (Homo sapiens, UniProt O75604)", "T3 construct": "The purified catalytic domain of USP2 (USP2CD, in-house purified) was used; made in house", "T3 sequence (O75604 267-599 limits assumed)": "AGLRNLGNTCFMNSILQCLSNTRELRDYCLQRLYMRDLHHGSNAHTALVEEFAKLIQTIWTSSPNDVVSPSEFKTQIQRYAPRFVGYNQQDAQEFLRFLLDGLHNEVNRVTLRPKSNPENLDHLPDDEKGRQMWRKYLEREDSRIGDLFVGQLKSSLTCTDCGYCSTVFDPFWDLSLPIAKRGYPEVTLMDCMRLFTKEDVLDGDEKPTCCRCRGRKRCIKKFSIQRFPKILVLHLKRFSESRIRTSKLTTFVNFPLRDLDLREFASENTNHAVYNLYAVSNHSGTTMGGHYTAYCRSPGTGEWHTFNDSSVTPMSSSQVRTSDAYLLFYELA", "assay": "USP2 CD inhibition (Ub-Rho)", "type": "biochemical", "details": "USP2CD 16 nM", "protocol": "The purified catalytic domain of USP2 (USP2CD, in-house purified) was used at a concentration of 16 nM in the presence of the artificial substrate Ub-Rho. Inhibition assays were performed as described above."}, "[4]": {"test_system": "AtT-20 pituitary cells", "assay": "Inhibition of ACTH secretion in pituitary cells (ACTH EIA on supernatant)", "type": "cell-based, mouse"}, "[5]": {"test_system": "AtT-20 cells", "from_the_text": "The AtT-20 cells viability was monitored in the conditions used to follow ACTH secretion. The viability of treated cells was concomitantly evaluated using a Cell Viability Reagent (monitoring of the cells' reducing capacity) (PrestoBlue® assay, Molecular Probes) with the aim to determine non-toxic doses of cell treatment.\nAfter the collection of the supernatant sample for the ACTH assay in the previous step, cells were supplemented with the PrestoBlue™ cell viability reagent (Invitrogen™ A13261) at 10% final volume, and re-incubated at 37° C. for 30 minutes. Fluorescence was then read with a FLUOstar OPTIMA microplate reader."}},
  "data": [
    {"compound": "Cc1cc(C(C#N)c2ccc(Cl)cc2)c(Cl)cc1NC(=O)c1cc(I)cc(I)c1O", "note": "(stereo not shown) [Closantel, reference compound]", "values": [
      {"measurement": "activity against papain", "setting": "[1]", "result": "not active"},
      {"measurement": "activity against UCH-L3", "setting": "[2]", "result": "not active"},
      {"measurement": "activity against USP2CD", "setting": "[3]", "result": "active"},
      {"measurement": "reduction in ACTH release", "setting": "[4]; 5.62 μM, compared to control", "result": 20, "unit": "%"},
      {"measurement": "inhibition of ACTH at 25 μM, in words (FIG. 4, FIG. 5)", "setting": "[4]; 25 μM, 24-hour treatment", "result": "significant inhibition"},
      {"measurement": "ACTH secretion reduction", "setting": "[4]; 30 μM, compared to control conditions", "result": 60, "unit": "%"},
      {"measurement": "activity at 25 µM", "setting": "[4]; Mus musculus, AtT20, 25 μM, 24-hour treatment, AtT-20 supernatant, read-out: ACTH secretion % of control (DMSO) at 25 μM", "result": 65, "unit": "%"},
      {"measurement": "dose-dependent inhibition of ACTH (FIG. 3)", "setting": "[4]; increasing concentrations, 24-hour treatment", "result": "significant dose-dependent inhibition"},
      {"measurement": "dose-dependent viability assay, in words (FIG. 7)", "setting": "[5]", "result": "less cytotoxic than niclosamide"},
      {"measurement": "AtT-20 cell viability (PrestoBlue assay) % of control (DMSO) at 25 μM Mean (SD)", "setting": "[5]; mouse, 24 h, 25 μM", "result": "104.8 (16.08) %"}
    ]}
  ]
}
